Data as given in paper PMC13242721 (Angewandte Chemie (International ed. in English), 2024).
Starred links: 1 amine or outer side, 2 acyl side, 3 side chain; linkers in the order of their positions; H or OH if unused. Non-standard residues stand in square brackets, D forms with d. Residues, ends and D or L forms follow the SMILES beside them. *: point of attachment. Palmitoyl = CCCCCCCCCCCCCCCC(=O)*; AzaAla = CN(N[*:1])C(=O)[*:2]

Experiments:
GIPR = molecular target: T1, GIPR (Homo sapiens, UniProt P48546); test: cAMP luciferase reporter assay, GIPR agonism; format: cell-based
T1 sequence (P48546 22-466): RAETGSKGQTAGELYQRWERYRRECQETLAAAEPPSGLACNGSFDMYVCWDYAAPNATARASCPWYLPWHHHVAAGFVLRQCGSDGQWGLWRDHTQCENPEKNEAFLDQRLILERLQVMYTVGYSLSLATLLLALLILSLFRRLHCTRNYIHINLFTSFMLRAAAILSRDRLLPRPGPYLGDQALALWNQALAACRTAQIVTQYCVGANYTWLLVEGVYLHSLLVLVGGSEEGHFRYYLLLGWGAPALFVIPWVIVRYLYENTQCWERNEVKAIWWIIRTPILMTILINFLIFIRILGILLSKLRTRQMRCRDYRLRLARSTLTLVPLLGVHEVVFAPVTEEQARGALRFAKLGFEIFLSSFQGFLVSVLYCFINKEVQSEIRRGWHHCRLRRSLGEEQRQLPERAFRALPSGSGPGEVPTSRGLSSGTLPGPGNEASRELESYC

GLP-1R [1] = molecular target: T2, GLP-1R (Homo sapiens, UniProt P43220)
T2 sequence (P43220 24-463): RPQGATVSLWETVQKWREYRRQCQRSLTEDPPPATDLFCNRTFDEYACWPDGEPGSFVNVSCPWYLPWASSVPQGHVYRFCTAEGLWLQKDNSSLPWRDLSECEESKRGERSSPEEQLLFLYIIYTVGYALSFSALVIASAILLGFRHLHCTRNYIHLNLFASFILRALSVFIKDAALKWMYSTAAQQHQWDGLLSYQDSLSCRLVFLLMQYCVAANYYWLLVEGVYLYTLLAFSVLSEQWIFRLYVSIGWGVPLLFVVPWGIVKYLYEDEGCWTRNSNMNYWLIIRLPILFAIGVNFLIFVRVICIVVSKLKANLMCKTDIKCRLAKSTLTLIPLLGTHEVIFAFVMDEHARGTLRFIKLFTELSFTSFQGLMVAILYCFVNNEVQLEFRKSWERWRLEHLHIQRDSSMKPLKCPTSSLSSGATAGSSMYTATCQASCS

GLP-1R [2] = molecular target: T2, GLP-1R; test: cAMP luciferase reporter assay, GLP-1R agonism; format: cell-based
GLP-1R [3] = molecular target: T2, GLP-1R; conditions: alanine scanning of GLP-1; cited from earlier work

Compound | EC50 (GIPR) [pM] | efficacy compared to native ligand (in words) (GIPR; GIPR, cAMP luciferase reporter assay) | Fold-Shift (↓) = (EC50 with DPP4)/(EC50 without DPP4) (GLP-1R [1]) | efficacy compared to native ligand (in words) (GLP-1R [2]) | adenylyl cyclase activity (in words) (GLP-1R [3])
CCCCCCCCCCCCCCCC(=O)NCCCC[C@H](NC(=O)[C@H](CO)NC(=O)[C@@H]1CCCN1C(=O)[C@@H]1CCCN1C(=O)[C@@H]1CCCN1C(=O)[C@H](C)NC(=O)CNC(=O)[C@H](CO)NC(=O)[C@H](CO)NC(=O)[C@@H]1CCCN1C(=O)CNC(=O)CNC(=O)[C@H](C)NC(=O)[C@H](CC(C)C)NC(=O)[C@H](CC(C)C)NC(=O)[C@H](Cc1c[nH]c2ccccc12)NC(=O)[C@H](CC(N)=O)NC(=O)[C@@H](NC(=O)[C@H](Cc1ccccc1)NC(=O)[C@H](CCC(=O)O)NC(=O)[C@H](C)NC(=O)[C@H](C)NC(=O)[C@H](C)NC(=O)[C@H](CCC(N)=O)NC(=O)[C@H](CCCCN)NC(=O)[C@H](CC(=O)O)NC(=O)[C@H](CC(C)C)NC(=O)[C@H](Cc1ccc(O)cc1)NC(=O)[C@@H](NC(=O)[C@H](CO)NC(=O)[C@H](Cc1ccc(O)cc1)NC(=O)[C@H](CC(=O)O)NC(=O)[C@H](CO)NC(=O)[C@@H](NC(=O)[C@H](Cc1ccccc1)NC(=O)[C@@H](NC(=O)CNC(=O)[C@H](CCC(=O)O)NC(=O)N(C)NC(=O)[C@@H](N)Cc1ccc(O)cc1)[C@@H](C)O)[C@@H](C)O)[C@@H](C)CC)C(C)C)C(N)=O [DA X2AzaA, X20A] (H-Y[AzaAla]EGTFTSDYSIYLDKQAAAEFVNWLLAGGPSSGAPPPSK(Palmitoyl)-NH2; N-terminus and C-terminus assumed) | 2.51 | equiefficacious | 1.0 | equiefficacious | 
Glu9Ala variant: literature alanine-scan variant of GLP-1 (HDEFERHAAGTFTSDVSSYLEGQAAKEFIAWLVKGRG; Glucagon-like peptide 1; UniProt P01275 92-128, looked up, variant E9A) |  |  |  |  | equivalent adenylyl cyclase activity
